Reference: PMC10666548, “Identification of the bacterial metabolite aerugine as potential trigger of human dopaminergic neurodegeneration” (Environment international, 2023)
“Also recorded” adds a separate entry of the source.

System: mitochondrial respiration in LUHMES cells
Test: Seahorse assessment of mitochondrial respiratory parameters
Assay type: cell-based, human
Details: d3 LUHMES
Procedure: The method was performed as described previously. ([Delp et al., 2018]) In brief, LUHMES cells were seeded on d2 into pre-coated Agilent Seahorse XFe24 well plates at a density of 100′000 cells/well in differentiation medium. On d3 the cells were analyzed in a Seahorse XF analyzer using the Mito stress test kit in accordance with the manufacturer’s instructions. In brief, 1 h prior to analysis the medium was changed to Seahorse XF base medium supplemented with 18 mM glucose, 2 mM glutamine and 1 mM pyruvate. The oxygen consumption rate (OCR) was measured to determine the basal respiration in untreated cells. After test compound injection the acute response was quantified. […] The addition of 0.5 μM rotenone and 0.5 μM antimycin A completely shut down mitochondrial respiration to quantify non-mitochondrial respiration. […] Image acquisition was performed using an Array-Scan VTI HCS Reader (Cellomics, PA, USA) equipped with a Hamamatsu ORCA-ER camera. […] Nuclei were identified and quantified depending on intensity, area, size and shape. According to pixel size and well size the total cell count was calculated and used for normalization of the OCR data. […]
A The effect of aerugine on respiratory function was analysed in d3 LUHMES cells. […] C Delp et al. (2019) determined the dependence of LUHMES cells on glycolysis and their mitochondria for ATP production in two different media conditions. […]

SMILES: OCC1CSC(c2ccccc2O)=N1 (centres unmarked) [aerugine, 2-[4-(hydroxymethyl)-4,5-dihydro-1,3-thiazol-2-yl]phenol]
- functional respiratory parameters (e.g. basal respiration, ATP production): no significant difference was observed
- oxygen consumption rate (OCR) (various metabolic conditions): not different from control conditions; also recorded: No interaction
